What was measured:
5-HT1A receptors = target: T1, 5-HT1A receptors (Rattus norvegicus, UniProt P19327); experiment: inhibition of [3H]8-OH-DPAT binding to 5-HT1A receptors in rat hippocampal tissue; conditions: rat hippocampus, [3H]8-OH-DPAT 2 nM, 25° C., 30 min
T1 construct: Hippocampal tissue from the brains of male Sprague-Dawley rats; from tissue; host or cells: rat hippocampus membranes
T1 sequence (P19327 1-422): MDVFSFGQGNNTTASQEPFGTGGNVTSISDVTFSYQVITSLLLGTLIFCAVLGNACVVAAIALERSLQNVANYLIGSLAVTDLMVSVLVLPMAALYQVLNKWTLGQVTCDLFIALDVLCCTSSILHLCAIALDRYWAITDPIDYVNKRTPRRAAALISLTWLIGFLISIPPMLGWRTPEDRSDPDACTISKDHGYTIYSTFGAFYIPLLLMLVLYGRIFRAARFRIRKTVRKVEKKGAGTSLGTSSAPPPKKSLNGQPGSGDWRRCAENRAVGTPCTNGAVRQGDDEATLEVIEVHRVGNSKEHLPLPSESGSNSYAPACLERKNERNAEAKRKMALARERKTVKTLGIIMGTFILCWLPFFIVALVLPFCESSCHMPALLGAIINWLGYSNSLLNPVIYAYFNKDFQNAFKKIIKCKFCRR
Method in brief: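 Male Sprague-Dawley rat hippocampal membranes in 50 mM Tris-HCl, pH 7.7, with 4 mM CaCl2, 0.1% ascorbate and 10 µM pargyline were incubated 30 min at 25 °C with [3H]8-OH-DPAT (2 nM as added), then filtered. Compounds were screened at 10^-6 M (as added). Curves were run for those giving ≥50% displacement, and IC50 was converted to Ki using ligand concentration and KD.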

α1-adrenoceptors = experiment: inhibition of [7-methoxy-3H]prazosin binding to α1-adrenoceptors in rat whole cortical tissue; conditions: rat whole cortex, [7-methoxy-3H]prazosin 0.1 nM, 30° C., 30 min
Method in brief: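 Male CD rat cortical membranes (5 mg wet tissue/tube) in 50 mM Tris-HCl pH 7.6 incubated 30 min at 30 °C with [3H]prazosin (0.1 nM as added); phentolamine 5 μM defined non-specific binding. Compounds screened at 10^-6 M; ≥50% displacers titrated 10^-11–10^-3 M. Filter-bound counts gave IC50, converted to Ki via ligand concentration and KD.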

D2 dopamine receptors = target: T2, D2 dopamine receptors (Rattus norvegicus, UniProt P61169); experiment: inhibition of tritiated (S)-sulpiride binding to D2 dopamine receptors in rat striatal tissue; conditions: rat striatum, tritiated (S)-sulpiride 1 nM, 4° C., 40 min
T2 construct: Striatal tissue from the brains of male Charles River CD rats; from tissue; host or cells: rat striatum membranes
T2 sequence (P61169 whole entry): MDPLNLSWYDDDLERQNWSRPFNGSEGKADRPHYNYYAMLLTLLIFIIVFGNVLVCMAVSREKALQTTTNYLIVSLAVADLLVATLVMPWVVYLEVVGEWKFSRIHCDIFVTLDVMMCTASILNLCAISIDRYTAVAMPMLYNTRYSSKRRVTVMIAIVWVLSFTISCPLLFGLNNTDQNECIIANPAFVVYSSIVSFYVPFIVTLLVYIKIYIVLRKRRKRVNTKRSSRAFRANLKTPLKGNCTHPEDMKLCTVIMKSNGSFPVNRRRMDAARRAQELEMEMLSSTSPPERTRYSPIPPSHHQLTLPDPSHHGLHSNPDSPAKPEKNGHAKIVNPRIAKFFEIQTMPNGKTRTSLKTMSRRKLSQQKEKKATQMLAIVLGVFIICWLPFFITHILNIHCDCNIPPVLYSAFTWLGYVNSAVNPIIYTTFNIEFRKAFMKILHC

Row | Structure (SMILES) | Ki (5-HT1A receptors) | Ki (α1-adrenoceptors) | Ki (D2 dopamine receptors)
1 | Nc1ncccc1C(=O)NCC1CCN(C[C@H]2COc3cccc(C(F)(F)F)c3O2)CC1 [Example 20, (S)-2-amino-N-{[1-(8-trifluoromethyl-1,4-benzodioxan-2-ylmethyl)-4-piperidyl]methyl}pyridine-3-carboxamide] | 41 nM | 4 nM | 12 nM
2 | O=C(NCC1CCN(C[C@H]2COc3ccc(Cl)cc3O2)CC1)c1cccnc1 [Example 22, (S)-N-{[1-(7-chloro-1,4-benzodioxan-2-ylmethyl)-4-piperidyl]methyl}pyridine-3-carboxamide] | 35 nM | 172 nM | 15 nM
3 | O=C(NCC1CCN(C[C@H]2COc3ccc(Cl)cc3O2)CC1)c1cccc2cccnc12 [Example 23, (S)-N-{[1-(7-chloro-1,4-benzodioxan-2-ylmethyl)-4-piperidyl]methyl}quinoline-8-carboxamide] | 70 nM | 44 nM | 80 nM
